By IC50 is commonly meant the midpoint of a concentration-inhibition curve.

This note sets out measurements from publication PMC11638965, “Leveraging Dual-Ligase Recruitment to Enhance Protein Degradation via a Heterotrivalent Proteolysis Targeting Chimera” (Journal of the American Chemical Society, 2024).

The target of assay [1] is T1, VHL (Homo sapiens, UniProt P40337).
T1 construct: host or cells: HEK293, transient
The assay is described as follows: NanoBRET lytic and live cell target engagement assay. It is filed as binding. On the procedure:
CRBN (N2910, Promega) and VHL (N2930, Promega) NanoBRET target engagement assays were performed according to manufacturer’s instructions. Transfection complexes were prepared using 1 mL Opti-MEM, 30 μL FuGENE HD, and either 9 μg/mL DDB1 Expression Vector and 1 μg/mL NanoLuc-CRBN fusion vector, or 9 μg/mL Transfection Carrier DNA and 1 μg/mL VHL-NanoLuc fusion vector. Transfection complexes were allowed to form for 20 min at room temperature, then were added to 20 mL of HEK293 cells at density of 200,000 cells/mL. Transfected HEK293 cells were plated in a T75 flask and allowed to express protein overnight. The next day, 85 μL of transfected cells (at 200,000 cells/mL) were replated in white nonbinding 96-well plates for live and lytic target engagement measurements. For live mode, a 100x solution of NanoBRET tracer was prepared using 100% DMSO (50 μM for CRBN live-cell, 100 μM for VHL live-cell). 100x tracer was used to prepare 20× tracer using tracer dilution buffer. PROTACs or test compounds were prepared at 10x final concentrations in Opti-MEM. Five μL of the prepared tracer was then dispensed to each well and the plate was mixed on an orbital shaker at 300 rpm for 15 s. Ten μL of each 10x PROTAC dilution was added to the cells and the plate was mixed again before being incubated at a 37 °C, 5% CO2 incubator for 2 or 5 h (as indicated in each figure). After incubation, a 50 μL of a 3X substrate solution (containing 30 μL NanoBRET Nano-Glo Substrate, 10 μL Extracellular NanoLuc inhibitor, and 4960 μL of Opti-MEM) was added to each well. Plates were incubated for 2–3 min at room temperature, then donor emission (450 nm) and acceptor emission (at 610 nm) values were read using a GloMax Discover. For lytic mode, the following changes were made. 100x tracer concentration for CRBN was 13 μM, 100X tracer concentration for VHL was 25 μM, 75 μL of a 200,000 cell/mL solution was plated in white nonbinding 96-well plates, and 10 μL of a 10x digitonin solution was added immediately after the cells were treated with PROTACs. Plates were incubated in darkness for 5 min after digitonin addition to allow for permeabilization. 50 μL of 3X substrate (30 μL NanoBRET Nano-Glo substrate and 4970 μL Opti-MEM) was added to each well and plates were incubated for 1 min at room temperature before being read on a GloMax Discover as above.
(Bioluminescence resonance energy transfer reports proximity on the nanometre scale.)

Assay [2] concerns HEK293 cells. The experiment in a line: TMT mass spectrometry proteomics. The note with it: 250 nM, 4 h; for proteins significantly depleted/downregulated, proteome-wide: 7276 proteins detected, relative to DMSO. It is filed as cell-based, Human. The method, then: S-Trap micro spin column digestion was performed according to the manufacturer’s protocol. Briefly, HEK293 cells were treated with DMSO, 250 nM neg-cis-AB3067 (95) or 250 nM AB3067 (27) for 4 h; cells were harvested and washed with PBS and spun. Cell pellets were solubilized in 5% SDS, 50 mM triethylammonium bicarbonate, reduced with 100 mM DTT solution and alkylated with iodoacetamide to a final concentration of 40 mM. Aqueous phosphoric acid was added to a final concentration of 1.2%. Protein particulate was formed by adding S-Trap binding buffer [90% aqueous methanol, 100 mM TEAB (pH 7.1)]. The mixture was placed on S-Trap micro 1.7 mL columns and centrifuged at 4000 × g for 10 s. Columns were washed with 150 μL of S-Trap binding buffer five times and centrifuged at 4000 × g for 10 s. Samples were digested with 2 μg of trypsin (Promega) at 37 °C for four h. Peptides were eluted with 40 μL of 50 mM TEAB followed by 40 μL of 0.2% aqueous formic acid, and peptides were finally vacuum-dried. TMT15plex labeling of DMSO, 250 nM neg-cis-AB3067 (95) or 250 nM AB3067 (27) conditions were performed, with five biological replicates for each condition and peptide cleanup was performed according to the manufacturer’s protocol. After checking the labeling efficiency, samples were combined, desalted, and dried under vacuum. TMT samples were fractionated using offline high-pH reverse-phase chromatography. Peptides were separated, concatenated to 22 fractions, dried, and peptides redissolved in 5% formic acid and analyzed by LC–MS.
The raw mass spectrometric data were loaded into MaxQuant. Enzyme specificity was set to that of trypsin/P, allowing for cleavage of N-terminal to proline residues and between aspartic acid and proline residues. Other parameters used were as follows: (i) variable modifications—methionine oxidation, protein N-acetylation; (ii) fixed modifications, cysteine carbamidomethylation; (iii) database: Uniprot; -Human (iv) labels: 15-plex TMT (v) MS/MS tolerance: FTMS- 20 ppm, (vi) minimum peptide length, 7; (vii) maximum missed cleavages, 2; and (viii) and (ix) PSM and Protein false discovery rate, 1%. Reporter ion intensities (corrected) results from MaxQuant were imported into excel for bioinformatic analysis. The normalized corrected reporter ion intensities for each label were used to calculate ratios, and all “Contaminant,″ “Reverse”, and “Only identified by site” proteins were removed from the data. Proteins above or below twofold change [log2(2) = 1], and a nominal p-value less than 0.03 [−log10(0.03) = 1.5] were considered as differentially expressed proteins. The final volcano plot was produced in GraphPad prism 10 version [10.2.2].

Setting [3] is: HEK293 cells with NanoLuc-VHL, VHL fluorescent tracer, live cells 2 h, read-out: IC50 (Live Cell), Target: VHL.
Setting [4] is: HEK293 cells with NanoLuc-VHL, VHL fluorescent tracer, lysed with digitonin, read-out: IC50 (Lytic Cell), Target: VHL.
Where [5] appears, read: displacement of VHL tracer, live cell format, read-out: IC50 VHL, live cell format.

Where two headings read alike, the source gives them in different places.

T1 sequence (P40337 whole entry): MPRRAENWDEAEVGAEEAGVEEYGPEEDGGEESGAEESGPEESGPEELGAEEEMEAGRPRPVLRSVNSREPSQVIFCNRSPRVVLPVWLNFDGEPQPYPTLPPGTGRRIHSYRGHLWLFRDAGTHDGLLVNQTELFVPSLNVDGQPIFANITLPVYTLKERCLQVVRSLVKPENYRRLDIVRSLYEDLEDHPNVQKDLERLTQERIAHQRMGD

For the molecule `Cc1ncsc1-c1ccc(CNC(=O)[C@@H]2C[C@@H](O)CN2C(=O)[C@@H](NC(=O)COCC(C)(COCCOCCOCCNc2cc3c(cc2F)C(=O)N(C2CCC(=O)NC2=O)C3=O)COCCOCCOCCOC(=O)C[C@@H]2N=C(c3ccc(Cl)cc3)c3c(sc(C)c3C)-n3c(C)nnc32)C(C)(C)C)cc1` (mixture of isomers) [AB3063 (26), (17S)-11-((2-(2-(2-((2-(2,6-dioxopiperidin-3-yl)-6-fluoro-1,3-dioxoisoindolin-5-yl)amino)ethoxy)ethoxy)ethoxy)methyl)-17-((2S,4R)-4-hydroxy-2-((4-(4-methylthiazol-5-yl)benzyl)carbamoyl)pyrrolidine-1-carbonyl)-11,18,18-trimethyl-15-oxo-3,6,9,13-tetraoxa-16-azanonadecyl 2-((S)-4-(4-chlorophenyl)-2,3,9-trimethyl-6H-thieno[3,2-f][1,2,4]triazolo[4,3-a][1,4]diazepin-6-yl)acetate], the IC50 in assay [1] (setting [3]) is above 10000 nM; in assay [1] (setting [4]), 1820 nM; in assay [1] (setting [5]) it was 2300 nM; in assay [1] (displacement of VHL tracer, lytic format, read-out: IC50 VHL, lytic format) it was 1820 nM. The “fold weaker at engaging VHL in live cell format than in lytic format” value in assay [1] (live vs lytic) is above 5.5 fold.
As to `Cc1ncsc1-c1ccc([C@H](C)NC(=O)[C@@H]2C[C@H](O)CN2C(=O)[C@@H](NC(=O)COCC(C)(COCCOCCOCCNc2cc3c(cc2F)C(=O)N(C2CCC(=O)N(C)C2=O)C3=O)COCCOCCOCCOC(=O)C[C@@H]2N=C(c3ccc(Cl)cc3)c3c(sc(C)c3C)-n3c(C)nnc32)C(C)(C)C)cc1` (mixture of isomers) [neg-cis-AB3067 (95), (17S)-11-((2-(2-(2-((6-fluoro-2-(1-methyl-2,6-dioxopiperidin-3-yl)-1,3-dioxoisoindolin-5-yl)amino)ethoxy)ethoxy)ethoxy)methyl)-17-((2S,4S)-4-hydroxy-2-(((S)-1-(4-(4-methylthiazol-5-yl)phenyl)ethyl)carbamoyl)pyrrolidine-1-carbonyl)-11,18,18-trimethyl-15-oxo-3,6,9,13-tetraoxa-16-azanonadecyl 2-((S)-4-(4-chlorophenyl)-2,3,9-trimethyl-6H-thieno[3,2-f][1,2,4]triazolo[4,3-a][1,4]diazepin-6-yl)acetate], the “proteins significantly depleted/downregulated, proteome-wide” value in assay [2] is reported as “no protein was significantly downregulated”.
On to `Cc1ncsc1-c1ccc([C@H](C)NC(=O)[C@@H]2C[C@@H](O)CN2C(=O)[C@@H](NC(=O)COCC(C)(COCCOCCOCCNc2cc3c(cc2F)C(=O)N(C2CCC(=O)NC2=O)C3=O)COCCOCCOCCOC(=O)C[C@@H]2N=C(c3ccc(Cl)cc3)c3c(sc(C)c3C)-n3c(C)nnc32)C(C)(C)C)cc1` (mixture of isomers) [AB3067 (27), (17S)-11-((2-(2-(2-((2-(2,6-dioxopiperidin-3-yl)-6-fluoro-1,3-dioxoisoindolin-5-yl)amino)ethoxy)ethoxy)ethoxy)methyl)-17-((2S,4R)-4-hydroxy-2-(((S)-1-(4-(4-methylthiazol-5-yl)phenyl)ethyl)carbamoyl)pyrrolidine-1-carbonyl)-11,18,18-trimethyl-15-oxo-3,6,9,13-tetraoxa-16-azanonadecyl 2-((S)-4-(4-chlorophenyl)-2,3,9-trimethyl-6H-thieno[3,2-f][1,2,4]triazolo[4,3-a][1,4]diazepin-6-yl)acetate], for which the “fold stronger binding to VHL with respect to 26, live cell format” value in assay [1] (27 vs 26) is above 4.4 fold. The IC50 in assay [1] (setting [3]) was 2280 nM. Further, the IC50 in assay [1] (setting [4]) was found to be 559 nM. Also, the IC50 in assay [1] (setting [5]) is above 10000 nM. Besides, in assay [2], the CRBN abundance entry was “not significantly depleted”; the EID2 abundance entry is reported as “significantly downregulated”; the “proteins significantly depleted/downregulated, proteome-wide” value was “all three BET proteins, BRD2, BRD3 and BRD4, were significantly depleted”.
